Data as given in US20210403567A1, “METHODS OF TREATING CERVICAL CANCER BY ADMINISTERING A PD-1 INHIBITOR” (priority 2020, published 2021).
Where “and” joins values, the source holds several entries; their conditions need not be identical. Equal values may be shown once.

How the values were obtained:
[1] = tested on: recurrent or metastatic cervical cancer that has progressed after platinum-containing chemotherapy; experiment: Phase 3 trial, cemiplimab 350 mg IV Q3W versus investigator's choice (IC) chemotherapy: OS, PFS, ORR, DOR; conditions: for Median PFS (95% CI) / Median OS (95% CI) / Median DOR, months (95% CI): Kaplan-Meier; for PFS HR (95% CI) / OS subgroup analysis, Hazard Ratio (95% CI) / OS Hazard Ratio (95% CI): cemiplimab vs chemotherapy; for reduction in the risk of disease progression: vs chemotherapy;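 for all read-outs here: randomized trial arms, OS counted from randomization until death with censoring at last contact, PFS until first RECIST 1.1 progression or death from any cause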
cervical cancer = experiment: Dose escalation cohort of the cemiplimab first-in-human study, cervical cancer patients; type: in vivo; conditions: one cervical squamous patient, earlier response to cemiplimab+hfRT in dose escalation
Text: (Papadopoulos et al., Clin Cancer Res (December 2019) Epub). The sum total equates to a 17% objective response rate among cervical cancer patients enrolled in the phase I study (4/23 combined; 2/3 responding patients in dose escalation plus 2/20 in expansion cohorts). All responders had squamous histology.

[2] = Example 4 updated, SCC, listed as cemiplimab
[3] = Example 4 updated, overall population
[4] = Example 4 updated, overall population, listed as cemiplimab
[5] = overall population, listed as cemiplimab
[6] = overall population, N=304 per arm

## cemiplimab
[1]; Example 4 updated, SCC
  PFS: Number of censored patients: 42 (17.6%) n (%)
  PFS: Number of deaths: 34 (14.2%) n (%)
  PFS: Progressive Disease: 163 (68.2%) n (%)
  Median PFS (95% CI): 2.8 (2.6, 4.0) months
  PFS HR (95% CI): 0.705 (0.578, 0.861)
  reduction in the risk of disease progression: 29%
[1]; [2]
  Median PFS (95% CI): 2.8 months
  PFS HR (95% CI): 0.71
[1]; [3]
  PFS: Number of censored patients: 51(16.8%) n (%)
  PFS: Number of deaths: 41(13.5%) n (%)
  PFS: Progressive Disease: 212 (69.7%) n (%)
  Median PFS (95% CI): 2.8 (2.6, 3.9) months
  PFS HR (95% CI): 0.745 (0.625, 0.890)
  reduction in the risk of disease progression: 25%
[1]; [4]
  Median PFS (95% CI): 2.8 months
  PFS HR (95% CI): 0.75
[1]; Example 4 updated, overall population, N=304 per arm
  PFS: Number of events: 253 (83.2%) n (%)
[1]; Geographic region: Asia
  OS subgroup analysis, Hazard Ratio (95% CI): 0.65 (0.44-0.96)
[1]; Geographic region: North America
  OS subgroup analysis, Hazard Ratio (95% CI): 0.52 (0.27-1.00)
[1]; Geographic region: Rest of World
  OS subgroup analysis, Hazard Ratio (95% CI): 0.73 (0.57-0.94)
[1]; Prior bevacizumab use: No
  OS subgroup analysis, Hazard Ratio (95% CI): 0.76 (0.58-1.00)
[1]; Prior bevacizumab use: Yes
  OS subgroup analysis, Hazard Ratio (95% CI): 0.64 (0.48-0.86)
[1]; SCC
  Reduced risk of death (vs. chemotherapy): 27%
  Median OS (95% CI): 11.1 (9.2, 13.4) months
[1]; SCC, 6 months
  Estimated Event-Free Probability (PFS), % (95% CI): 34.5 (28.5, 40.5) %
  Estimated Survival Probability, % (95% CI): 69.6 (63.3, 75.0) %
[1]; SCC, 12 months
  Estimated Event-Free Probability (PFS), % (95% CI): 21.0 (15.8, 26.6) %
  Estimated Survival Probability, % (95% CI): 48.2 (41.3, 54.7) %
[1]; SCC, 18 months
  Estimated Event-Free Probability (PFS), % (95% CI): 14.5 (9.7, 20.1) %
  Estimated Survival Probability, % (95% CI): 33.4 (26.3, 40.6) %
[1]; SCC, 24 months
  Estimated Event-Free Probability (PFS), % (95% CI): 10.3 (5.9, 16.0) %
  Estimated Survival Probability, % (95% CI): 25.3 (17.8, 33.5) %
[1]; SCC, 30 months
  Estimated Event-Free Probability (PFS), % (95% CI): 7.7 (3.2, 14.8) %
  Estimated Survival Probability, % (95% CI): 25.3 (17.8, 33.5) %
[1]; SCC, listed as cemiplimab
  Median OS (95% CI): 11.1 months
  ORR: 17.6% and 18%
  Reduced risk of death (vs. chemotherapy): 27%
[1]; SCC, stratified proportional hazards model
  OS Hazard Ratio (95% CI): 0.727 (0.579, 0.914) and 0.73 (0.58-0.91)
[1]; SCC, stratified proportional hazards model, listed as cemiplimab
  OS Hazard Ratio (95% CI): 0.73
[1]; adenocarcinoma/adenosquamous (AC), cemiplimab N=65, chemo N=66
  OS: Number of deaths: 41 (63.1%) n (%)
[1]; overall population
  Median observed time to response, months (range): 2.7 (1.2-11.4) months
  Reduced risk of death (vs. chemotherapy): 31%
  Median DOR, months (95% CI): 16.4 (12.4, NE) months
  Median OS (95% CI): 12.0 (10.3, 13.5) months
  OS Hazard Ratio (95% CI): 0.685 (0.560, 0.838)
[1]; overall population, 6 months
  Estimated Event-Free Probability (PFS), % (95% CI): 33.5 (28.2, 38.9) %
  Estimated Survival Probability, % (95% CI): 69.6 (64.0, 74.5) %
[1]; overall population, 12 months
  Estimated Event-Free Probability (PFS), % (95% CI): 18.8 (14.4, 23.6) %
  Estimated Survival Probability, % (95% CI): 50.2 (44.1, 56.0) %
[1]; overall population, 18 months
  Estimated Event-Free Probability (PFS), % (95% CI): 13.0 (9.0, 17.8) %
  Estimated Survival Probability, % (95% CI): 33.4 (27.2, 39.7) %
[1]; overall population, 24 months
  Estimated Event-Free Probability (PFS), % (95% CI): 9.7 (6.0, 14.6) %
  Estimated Survival Probability, % (95% CI): 23.6 (17.1, 30.6) %
[1]; overall population, 30 months
  Estimated Event-Free Probability (PFS), % (95% CI): 7.8 (3.8, 13.6) %
  Estimated Survival Probability, % (95% CI): 23.6 (17.1, 30.6) %
[1]; [5]
  Median DOR, months (95% CI): 16 months
  Median OS (95% CI): 12 months and 12.0 months
  OS Hazard Ratio (95% CI): 0.69
  ORR: 16.4% and 16%
  Reduced risk of death (vs. chemotherapy): 31%
[1]; [6]
  Best Overall Tumor Response: Complete Response (CR): 10 (3.3) n (%)
  Best Overall Tumor Response: Not Evaluable (NE): 24 (7.9) n (%)
  Best Overall Tumor Response: Partial Response (PR): 40 (13.2) n (%)
  Best Overall Tumor Response: Progressive Disease (PD): 105 (34.5) n (%)
  OS: Number of censored patients: 120 (39.5%) n (%)
  OS: Number of deaths: 184 (60.5%) n (%)
  Objective Response Rate (ORR: CR + PR): 50 (16.4%) n (%)
[1]; prior lines: 1 line
  OS subgroup analysis, Hazard Ratio (95% CI): 0.74 (0.58-0.94)
[1]; prior lines: >1 line
  OS subgroup analysis, Hazard Ratio (95% CI): 0.72 (0.54-0.95)
Cervical cancer
  response to retreatment after disease recurrence: complete response
